# Experiments:
# Type in all cases: cell-based
# [1] = molecular target: T1, human PPARδ (hPPARδ) (Homo sapiens, UniProt Q03181); test: Test for transcriptional activity of PPARδ (GAL4 chimeric transcription factor reporter assay in CHO cells); conditions: CHO cells transfected with GAL4-hPPARδ LBD and pG5luc reporter; 24 hours; luciferase activity; concentration showing 1/2 of maximum luciferase activity
# T1 construct: δ: aa 139-C-end; α: aa 167-C-end; expressed in transfected cells; host or cells: CHO cells (transient transfection, FuGene)
# T1 sequence (Q03181 139-441 limits assumed): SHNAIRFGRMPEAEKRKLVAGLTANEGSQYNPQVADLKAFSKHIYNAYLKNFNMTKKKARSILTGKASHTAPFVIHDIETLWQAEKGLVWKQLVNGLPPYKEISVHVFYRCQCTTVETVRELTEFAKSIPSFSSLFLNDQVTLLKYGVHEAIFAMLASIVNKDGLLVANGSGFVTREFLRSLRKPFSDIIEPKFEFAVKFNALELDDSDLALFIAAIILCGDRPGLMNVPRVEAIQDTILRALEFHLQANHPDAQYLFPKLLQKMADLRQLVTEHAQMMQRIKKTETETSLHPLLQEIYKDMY
# Excerpt: (§1) A chimeric transcription factor assay, which is commonly used to detect nuclear receptor activity, was employed to measure PPAR transcriptional activity. Specifically, two plasmids, one that expresses the fusion protein of DNA binding domain of yeast transcription factor GAL4 and a ligand binding domain of a receptor, and a reporter plasmid were transiently transfected to CHO cells. The activity of the promoter containing a recognition sequence of GAL4 coded on the reporter plasmid was used as a parameter to estimate the activity of the receptor.
# (§2) Plasmid: The ligand binding domain of human PPARδ (hPPARδ) or α(hPPARα) (δ: aa 139-C-end; α: aa 167-C-end) is obtained by PCR amplification using Human Universal Quick-Clone cDNA (CLONTECH). […] Then, each obtained cDNA fragment was subcloned into pBIND vector (Promega) to construct a plasmid expressing the fusion protein with DNA binding domain of yeast transcription factor GAL4. pG5luc vector (Promega) was used as a reporter plasmid.
# (§3) Cell culturing and transfection: CHO cells were cultured in 10% FBS-aMEM. With a 96-well plate (Costar), CHO cells, that were dispersed with trypsin treatment, 20000 cells per well and the two plasmids obtained by the above procedure, 25 ng per well, were transfected with FuGene Reagent (Roche) by following the instruction of the manufacture.
# (§4) Measurement of the transcriptional activity: CHO cells 100 μl per well, which were transfected as above, were dispensed into the wells in which a test compound dissolved in DMSO 0.5 μl was spotted in advance. After the cells and a test compound were cultured together for 24 hours in a CO2 incubator, the luciferase activity was measured by adding luciferase substrates, PicaGene LT2.0 (Toyo ink) 100 μl per well. LUMINOUS CT-9000D (DIA-IATRON) is used to measure the activity.
# [2] = molecular target: T2, human PPARα (hPPARα) (Homo sapiens, UniProt Q07869); test: Test for transcriptional activity of PPARα (GAL4 chimeric transcription factor reporter assay in CHO cells); conditions: CHO cells transfected with GAL4-hPPARα LBD and pG5luc reporter; 24 hours; luciferase activity
# T2 construct: δ: aa 139-C-end; α: aa 167-C-end; expressed in transfected cells; host or cells: CHO cells (transient transfection, FuGene)
# T2 sequence (Q07869 167-468 limits assumed): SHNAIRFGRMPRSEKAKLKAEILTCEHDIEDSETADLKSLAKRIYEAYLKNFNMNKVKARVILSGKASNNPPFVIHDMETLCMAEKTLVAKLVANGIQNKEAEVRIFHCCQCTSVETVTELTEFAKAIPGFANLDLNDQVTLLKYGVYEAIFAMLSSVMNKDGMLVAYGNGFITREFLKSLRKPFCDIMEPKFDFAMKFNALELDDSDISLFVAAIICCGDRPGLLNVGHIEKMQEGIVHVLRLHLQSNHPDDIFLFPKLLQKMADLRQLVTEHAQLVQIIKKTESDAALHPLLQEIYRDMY
# Excerpt: as §1, §2, §3, §4
# [3] = molecular target: T3, hPPARγ (Homo sapiens, UniProt P37231); test: Transcriptional activity of PPARγ (Table 9; chimeric transcription factor assay)
# T3 construct: expressed in transfected cells
# T3 sequence (P37231 238-503 limits assumed): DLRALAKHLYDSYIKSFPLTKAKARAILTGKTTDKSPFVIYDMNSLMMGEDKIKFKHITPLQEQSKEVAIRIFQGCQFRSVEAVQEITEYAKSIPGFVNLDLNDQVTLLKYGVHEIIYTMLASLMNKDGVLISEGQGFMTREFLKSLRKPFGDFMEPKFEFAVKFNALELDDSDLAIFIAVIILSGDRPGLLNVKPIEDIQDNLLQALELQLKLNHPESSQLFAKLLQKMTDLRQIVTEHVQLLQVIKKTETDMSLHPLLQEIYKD
# Excerpt: as §1, with “receptor. Cell culturing and transfection: CHO cells were cultured in 10% FBS-aMEM. With a 96-well plate (Costar), CHO cells, that were dispersed with trypsin treatment, 20000 cells per well and the two plasmids obtained by the above procedure, 25 ng per well, were transfected with FuGene Reagent (Roche) by following the instruction of the manufacture. […] LUMINOUS […]) is used to measure the activity.” for “receptor.”
Compound,EC50 [1] [µM],EC50 [2] [µM],EC50 [3] [µM]
CNc1cccc(-c2cnc(N3CCN(CCOc4cc(CC(=O)O)ccc4Cl)[C@@H](C)C3)s2)c1 [Example 562],0.029,> 10,1.9
C[C@@H]1CN(c2nc3ccc(Cl)cc3s2)C[C@H](C)N1CCOc1ccc(Cl)c(CC(=O)O)c1 [Example 699],0.041,1,0.76
O=C(O)Cc1ccc(CN2CCCN(c3nc4ccc(Cl)cc4s3)CC2)s1 [Example 503],0.91,1.5,> 10
C[C@@H]1CN(C2(CCOc3cc(Cl)cc(CC(=O)O)c3)CCN(c3nc4ccc(Cl)cc4s3)CC2)C[C@H](C)O1 [Example 652],0.28,> 10,> 10
Cc1cc(CN2C[C@@H](C)N(c3nc4ccc(C(F)(F)F)cc4s3)[C@@H](C)C2)cc(OCC(=O)O)c1 [Example 590],0.026,> 10,> 10
"CCCCN(Cc1cccc(CC(=O)O)c1)C1CCN(c2nc3ccc(Cl)cc3s2)C1 (stereo not drawn) [Example 612, [3-[[butyl[1-(6-chlorobenzothiazole-2-yl)pyrrolidine-3-yl]amino]methyl]phenyl]acetic acid]",0.049,0.57,2.2

# Now those with a lower EC50 [1], led by results:
EC50 [1] [µM],EC50 [2] [µM],EC50 [3] [µM],Compound
0.02,0.54,0.8,COc1ccc(CC(=O)O)cc1OCC1CCN(c2nc3ccc(Cl)cc3s2)CC1 [Example 519]
0.019,2.5,3.3,C[C@@H]1CN(c2ccc(C(F)(F)F)cn2)C[C@H](C)N1CCOc1cc(CC(=O)O)ccc1Cl [Example 707]
0.0044,> 10,> 10,"CCCC[C@@H]1CN(Cc2cc(C)cc(OCC(=O)O)c2)CCN1c1nc2ccc(OC(F)(F)F)cc2s1 [Example 854, [3-[(R)-3-butyl-4-(6-trifluoromethoxybenzothiazole-2-yl)-piperazine-1-ylmethyl]-5-methylphenoxy]acetic acid]"
0.023,2.6,4.2,O=C(O)Cc1cccc(OCCN(C2CCCCC2)C2CCN(c3nc4ccc(Cl)cc4s3)C2)c1 (stereo not drawn) [Example 630]
0.0045,0.35,0.2,Cc1cc(CC(=O)O)cc(CN2CCN(c3nc4ccc(C(F)(F)F)cc4s3)[C@@H](CC(C)C)C2)c1 [Example 474]
0.013,0.96,0.58,C[C@H]1CN(c2nc3ccc(Cl)cc3s2)CCN1CCOc1cc(Cl)cc(CC(=O)O)c1 [Example 679]

# From patent US8097610B2, “Derivative having PPAR agonistic activity” (Shionogi & Co., Ltd., priority 2005, dated 2012)
